In US20160159861A1, “APJ Receptor Compounds” (priority 2013, published 2016):
pEC50: −log10 of the molar value. Where two headings read alike, the source gives them in different places. Peptide text beside a SMILES is read from it.

Target: T1, human APJ receptor (hAPJ) (Homo sapiens, UniProt P35414)
T1 construct: expressed in transfected cells
T1 sequence (P35414 1-380): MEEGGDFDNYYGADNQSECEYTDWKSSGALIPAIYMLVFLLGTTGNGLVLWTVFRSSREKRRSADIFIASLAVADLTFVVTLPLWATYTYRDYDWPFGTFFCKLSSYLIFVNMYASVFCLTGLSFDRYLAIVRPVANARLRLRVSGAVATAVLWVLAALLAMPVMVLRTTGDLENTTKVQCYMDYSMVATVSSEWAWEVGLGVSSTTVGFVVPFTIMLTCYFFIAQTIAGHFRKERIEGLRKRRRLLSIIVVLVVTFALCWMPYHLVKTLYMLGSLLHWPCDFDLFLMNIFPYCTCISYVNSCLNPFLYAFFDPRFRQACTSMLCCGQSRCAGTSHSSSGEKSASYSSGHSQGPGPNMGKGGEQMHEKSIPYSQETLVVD
Test: HTRF cAMP assay: inhibition of NKH477-stimulated cAMP in HEK cells stably expressing hAPJ
Assay type: cell-based
Conditions: for % IA (cAMP inhibition, hAPJ HEK): intrinsic activity; for Ranking: composite class of EC50 (hAPJ), % IA and % histamine or formal (+) charge; for Emax: HEK293, read-out: % IA, bound stated; for inhibition of NKH477-stimulated increase in cAMP, dose dependent: concentration response curves, FIGS. 1 and 2, HEK cells stably expressing APJ
Source text: HTRF cAMP Assay and IP-One Assay (Cisbio)
HTRF (homogeneous time resolved fluorescence) is a technology developed by Cisbio Bioassays based on TR-FRET (time-resolved fluorescence resonance energy transfer). Cisbio Bioassays has developed a wide selection of HTRF-based assays compatible with whole cells, thereby enabling functional assays to run under more physiological conditions. The IP-One assays are competitive immunoassays using cryptate-labeled anti-IP1 monoclonal antibody and d2-labeled IP1. IP1 is a relatively stable downstream metabolite of IP3, and accumulates in cells following Gq receptor activation.
cAMP kits based on a competitive immunoassay using cryptate-labeled anti-cAMP antibody and d2-labeled cAMP were used to assay the effects of APJ compounds of the present invention. […] Cells are treated with 1 nG/mL doxycycline and seeded in all white 96 well plates @40 k/well overnight.

[1] = Table 6, hAPJ HEK cells, NKH477-stimulated cAMP, read-out: EC50 (cAMP inhibition, hAPJ HEK)
[2] = EC50 (cAMP inhibition, hAPJ HEK), Table 6, hAPJ HEK cells, NKH477-stimulated cAMP
[3] = EC50 (hAPJ), inhibition of cAMP production, bound stated, HTRF cAMP Assay, per data of Table 6
[4] = HTRF cAMP Assay, per data of Table 6
[5] = HTRF cAMP Assay, per data of Table 6, read-out: EC50 (hAPJ), inhibition of cAMP production, bound stated

pEC50 [1] | pEC50 [5] | SMILES | % IA (cAMP inhibition, hAPJ HEK) (Table 6, hAPJ HEK cells) [%] | Ranking | pEC50 [2] | pEC50 [3] | Emax [4] [%] | inhibition of NKH477-stimulated increase in cAMP, dose dependent
7.40 |  | CCCCCCCCCCCCCCCC(=O)N[C@H](C(=O)N[C@H](C(=O)N[C@@H](CC(=O)O)C(=O)N[C@@H](CCCNC(=N)N)C(=O)N[C@@H](CO)C(=O)N[C@@H](CO)C(=O)N[C@@H](CCCNC(=N)N)C(=O)N[C@@H](CCC(=O)O)C(=O)N[C@H](CCCCN)C(=O)N[C@@H](CCCNC(=N)N)C(=O)N[C@@H](CCCNC(=N)N)C(=O)N[C@@H](CCC(=O)O)C(=O)N[C@@H](CO)C(=O)N[C@@H](C)C(=O)N[C@@H](CC(=O)O)C(=O)N[C@H](C(=O)N[C@@H](Cc1ccccc1)C(=O)N[C@H](C(N)=O)[C@@H](C)CC)[C@@H](C)CC)C(C)C)[C@@H](C)O [Compound 5] (HELM PEPTIDE1{[CCCCCCCCCCCCCCCC(=O)[*:2]].T.V.D.R.S.S.R.E.[dK].R.R.E.S.A.D.I.F.I.[am]}$$$$V2.0) | 41 | * (EC50≦50 nM (hAPJ), % IA<50%) |  |  |  | 
 |  | CCCCCCCCCCCCCCCC(=O)N[C@H](C(=O)N[C@H](C(=O)N[C@@H](CC(=O)O)C(=O)N[C@@H](CCCNC(=N)N)C(=O)N[C@@H](CO)C(=O)N[C@@H](CO)C(=O)N[C@@H](CCC(N)=O)C(=O)N[C@@H](CCC(=O)O)C(=O)N[C@H](CCCCN)C(=O)N[C@@H](CCCNC(=N)N)C(=O)N[C@@H](CCCNC(=N)N)C(=O)N[C@@H](CO)C(=O)N[C@@H](C)C(=O)N[C@@H](CC(=O)O)C(=O)N[C@H](C(=O)N[C@@H](Cc1ccccc1)C(=O)N[C@H](C(N)=O)[C@@H](C)CC)[C@@H](C)CC)C(C)C)[C@@H](C)O [Compound 6] (HELM PEPTIDE1{[CCCCCCCCCCCCCCCC(=O)[*:2]].T.V.D.R.S.S.Q.E.[dK].R.R.S.A.D.I.F.I.[am]}$$$$V2.0) | 77 | *** (EC50 25-50 nM (hAPJ), % IA 50-79% and either % histamine≦35% or formal (+) charge≦1) | 7.72 | 7.30 to 7.60 | 50 to 79 | 
 |  | CCCCCCCCCCCCCCCC(=O)N[C@H](C(=O)N[C@H](C(=O)N[C@@H](CC(=O)O)C(=O)N[C@@H](CCCNC(=N)N)C(=O)N[C@@H](CO)C(=O)N[C@@H](CO)C(=O)N[C@@H](CCCCN)C(=O)N[C@@H](CCC(=O)O)C(=O)N[C@H](CCCCN)C(=O)N[C@@H](CCCNC(=N)N)C(=O)N[C@@H](CCCNC(=N)N)C(=O)N[C@@H](CO)C(=O)N[C@@H](C)C(=O)N[C@@H](CC(=O)O)C(=O)N[C@H](C(=O)N[C@@H](Cc1ccccc1)C(=O)N[C@H](C(N)=O)[C@@H](C)CC)[C@@H](C)CC)C(C)C)[C@@H](C)O [Compound 7] (HELM PEPTIDE1{[CCCCCCCCCCCCCCCC(=O)[*:2]].T.V.D.R.S.S.K.E.[dK].R.R.S.A.D.I.F.I.[am]}$$$$V2.0) | 59 | *** (EC50 25-50 nM (hAPJ), % IA 50-79% and either % histamine≦35% or formal (+) charge≦1) | 8.05 | 7.30 to 7.60 | 50 to 79 | 
8.30 | 7.30 to 7.60 | CCCCCCCCCCCCCCCC(=O)N[C@@H](CC(=O)O)C(=O)N[C@H](C(=O)N[C@@H](Cc1ccccc1)C(=O)N[C@@H](CC(N)=O)C(=O)N[C@@H](CO)C(=O)N[C@@H](CO)C(=O)N[C@@H](CCC(=O)O)C(=O)N[C@H](CCCCN)C(=O)N[C@@H](CCCNC(=N)N)C(=O)N[C@@H](CCCNC(=N)N)C(=O)N[C@@H](CO)C(=O)N[C@@H](C)C(=O)N[C@@H](CC(=O)O)C(=O)N[C@@H](CC(N)=O)C(=O)N[C@@H](Cc1ccccc1)C(=O)N[C@H](C(N)=O)[C@@H](C)CC)C(C)C [Compound 19] (HELM PEPTIDE1{[CCCCCCCCCCCCCCCC(=O)[*:2]].D.V.F.N.S.S.E.[dK].R.R.S.A.D.N.F.I.[am]}$$$$V2.0) | 67 | *** (EC50 25-50 nM (hAPJ), % IA 50-79% and either % histamine≦35% or formal (+) charge≦1) |  |  | 50 to 79 | 
7.49 | 7.30 to 7.60 | CCCCCCCCCCCCCCCC(=O)N[C@@H](CC(=O)O)C(=O)N[C@H](C(=O)N[C@@H](Cc1ccccc1)C(=O)N[C@@H](CCCNC(=N)N)C(=O)N[C@@H](CO)C(=O)N[C@@H](CO)C(=O)N[C@@H](CCC(=O)O)C(=O)N[C@H](CCCCN)C(=O)N[C@@H](CCCNC(=N)N)C(=O)N[C@@H](CCCNC(=N)N)C(=O)N[C@@H](CO)C(=O)N[C@@H](C)C(=O)N[C@@H](CC(=O)O)C(=O)N[C@@H](CC(N)=O)C(=O)N[C@@H](Cc1ccccc1)C(=O)N[C@H](C(N)=O)[C@@H](C)CC)C(C)C [Compound 20] (HELM PEPTIDE1{[CCCCCCCCCCCCCCCC(=O)[*:2]].D.V.F.R.S.S.E.[dK].R.R.S.A.D.N.F.I.[am]}$$$$V2.0) | 98 | *** (EC50 25-50 nM (hAPJ), % IA 50-79% and either % histamine≦35% or formal (+) charge≦1) |  |  | 50 to 79 | 
 |  | CCCCCCCCCCCCCCCC(=O)N[C@H](C(=O)N[C@H](C(=O)N[C@@H](CCCCN)C(=O)N[C@@H](CCCNC(=N)N)C(=O)N[C@@H](CO)C(=O)N[C@@H](CO)C(=O)N[C@@H](CCC(=O)O)C(=O)N[C@H](CCCCN)C(=O)N[C@@H](CCCNC(=N)N)C(=O)N[C@@H](CCCNC(=N)N)C(=O)N[C@@H](CO)C(=O)N[C@@H](C)C(=O)N[C@@H](CC(=O)O)C(=O)N[C@H](C(=O)N[C@@H](Cc1ccccc1)C(=O)N[C@H](C(N)=O)[C@@H](C)CC)[C@@H](C)CC)C(C)C)[C@@H](C)O [Compound 21] (HELM PEPTIDE1{[CCCCCCCCCCCCCCCC(=O)[*:2]].T.V.K.R.S.S.E.[dK].R.R.S.A.D.I.F.I.[am]}$$$$V2.0) | 85 | **** (EC50≦25 nM (hAPJ), % IA≧80% and either % histamine>35% or formal (+) charge>1) | 8.05 | ≥ 7.60 | ≥ 80 | inhibited
 |  | CCCCCCCCCCCCCCCC(=O)N[C@H](C(=O)N[C@H](C(=O)N[C@@H](Cc1ccccc1)C(=O)N(C)[C@@H](CCCNC(=N)N)C(=O)N[C@@H](CO)C(=O)N[C@@H](CO)C(=O)N[C@@H](CCC(=O)O)C(=O)N[C@H](CCCCN)C(=O)N[C@@H](CCCNC(=N)N)C(=O)N[C@@H](CCCNC(=N)N)C(=O)N[C@@H](CO)C(=O)N[C@@H](C)C(=O)N[C@@H](CC(=O)O)C(=O)N[C@H](C(=O)N[C@@H](Cc1ccccc1)C(=O)N[C@H](C(N)=O)[C@@H](C)CC)[C@@H](C)CC)C(C)C)[C@@H](C)O [Compound 31] (HELM PEPTIDE1{[CCCCCCCCCCCCCCCC(=O)[*:2]].T.V.F.[meR].S.S.E.[dK].R.R.S.A.D.I.F.I.[am]}$$$$V2.0) | 84 | ** (EC50 25-50 nM (hAPJ), % IA 50-79% and either % histamine>35% or formal (+) charge>1) |  |  |  | 
 |  | CCCCCCCCCCCCCCCC(=O)N[C@H](C(=O)N[C@H](C(=O)N[C@@H](CC(=O)O)C(=O)N(C)[C@@H](CCCNC(=N)N)C(=O)N[C@@H](CO)C(=O)N[C@@H](CO)C(=O)N[C@@H](CCC(=O)O)C(=O)N[C@H](CCCCN)C(=O)N[C@@H](CCCNC(=N)N)C(=O)N[C@@H](CCCNC(=N)N)C(=O)N[C@@H](CO)C(=O)N[C@@H](C)C(=O)N[C@@H](CC(=O)O)C(=O)N[C@H](C(=O)N[C@@H](Cc1ccccc1)C(=O)N[C@H](C(N)=O)[C@@H](C)CC)[C@@H](C)CC)C(C)C)[C@@H](C)O [Compound 32] (HELM PEPTIDE1{[CCCCCCCCCCCCCCCC(=O)[*:2]].T.V.D.[meR].S.S.E.[dK].R.R.S.A.D.I.F.I.[am]}$$$$V2.0) | 97 | **** (EC50≦25 nM (hAPJ), % IA≧80% and either % histamine>35% or formal (+) charge>1) | 7.62 | ≥ 7.60 | ≥ 80 | inhibited

SMILES | pEC50 [1] | pEC50 [5] | % IA (cAMP inhibition, hAPJ HEK) (Table 6, hAPJ HEK cells) [%] | Ranking | pEC50 [2] | pEC50 [3] | Emax [4] [%] | inhibition of NKH477-stimulated increase in cAMP, dose dependent
CCCCCCCCCCCCCCCC(=O)N[C@H](C(=O)N[C@H](C(=O)N[C@@H](CC(=O)O)C(=O)N[C@@H](CCCNC(=N)N)C(=O)N[C@@H](CO)C(=O)N[C@@H](CO)C(=O)N[C@@H](CCC(=O)O)C(=O)N[C@H](CCCCN)C(=O)N[C@@H](CCCNC(=N)N)C(=O)N[C@@H](CCCNC(=N)N)C(=O)N[C@@H](CO)C(=O)N[C@@H](C)C(=O)N[C@@H](CC(=O)O)C(=O)N[C@@H](Cc1ccc(F)cc1)C(=O)N[C@@H](Cc1ccccc1)C(=O)N[C@H](C(N)=O)[C@@H](C)CC)C(C)C)[C@@H](C)O [Compound 33, TVDRSSEkRRSAD(p-fluoro-Phe)FI] (HELM PEPTIDE1{[CCCCCCCCCCCCCCCC(=O)[*:2]].T.V.D.R.S.S.E.[dK].R.R.S.A.D.[O=C([C@H](Cc1ccc(F)cc1)N[*:1])[*:2]].F.I.[am]}$$$$V2.0) | 7.52 | 7.30 to 7.60 | 80 | *** (EC50 25-50 nM (hAPJ), % IA 50-79% and either % histamine≦35% or formal (+) charge≦1) |  |  | 50 to 79 | 
